The values that follow come from patent US7501424B2, “N-phenyl-2-pyrimidine-amine derivatives and process for the preparation thereof” (Il-Yang Pharm. Co., Ltd., priority 2005, dated 2009).

In brackets after ≈: the same amount, converted by molar mass.

One data set relates to RPMI-6666. The data set is described as follows: Growth inhibition of lymphoma cell RPMI-6666 (MTT). The format is cell-based. The following applies: Homo sapiens; RPMI-6666, Experiment 3. The procedure:
(§1) In the present experiment, the inhibitory activity of the compound of formula (1) was determined against the growth of K562 cancer cell. First, the cells were allowed to stand in RPMI (Roswell Park Memorial Institute)-1640 medium containing 10% (v/v) fetal bovine serum in an incubator of 37° C. and 5% by volume of CO2. The cancer cells (1000 cells) were transferred to a 96-well plate, and the test compound was diluted. The plate was allowed to stand under the above mentioned conditions for 2 days. After this treatment, to the cells was added 0.2% MTT (3-[4,5-dimethylthiazol-2-yl]-2,5-diphenyltetrazolium bromide) solution, and the resulting mixture was allowed to stand under the constant temperature-condition for 4 hours. The supernatant was removed to leave the resulting crystal. DMSO was added to dissolve the crystal, and the absorbance of the solution was measured at 540 nm. IC50 value was calculated using a computer system according to the following formula: (OD540(test)−OD540(blank)/OD540(control)−OD540(blank))×100
(§2) The test was performed according to the same procedure as Experiment 1.

The nature of data set [1]: Comparative pharmacokinetic test in white rats.
The subject of a further data set is HT-1197. The data set is described as follows: Growth inhibition of bladder cancer cell HT-1197 (MTT). The format is cell-based. The following applies: Homo sapiens, HT1197; HT-1197, Experiment 3. The procedure: as §1, §2
Another data set relates to K562 cancer cell. The data set is described as follows: Growth inhibition of K562 cancer cell (MTT). The format is cell-based. The procedure: as §1
The next data set has as its system mice (ICR). The experiment in a line: Acute toxicity test in mice (oral administration). The format is in vivo. The following applies: mice (ICR), oral 2,000 mg/kg, 14 days. The procedure: (§3) In order to determine the acute toxicity of the compound of the present invention when the compound is orally administered, mice (ICR, 24˜26 g) were fasted for 16 hours. One group consists of 10 males and 10 females. The first group is the control group and 0.5% sodium carboxymethyl cellulose (CMC) was administered per oral to this group. The compounds of Examples 5 and 8 were orally administered in a dosage of 2,000 mg/kg, the maximum dosage in acute toxicity test, to each test group. […] On the last day of the test, 14th day from the start, the mice were subjected to an autopsy in order to examine changes of the internal organs. […] Further, since no mouse died during the test period, it was confirmed that the compounds of Examples 5 and 8 have LD50 of 2,000 mg/kg or more. This means that the compounds of the present invention including those of Examples 5 and 8 are safe in the aspect of acute toxicity.

A short description of data set [2]: Acute toxicity test in mice (oral administration). The format is in vivo. To be noted: both sexes, ICR, mouse, in vivo, po. The procedure:
as §3

The next data set deals with rat (SD-Rat). The experiment in a line: Acute toxicity test in rat (oral administration). It counts as in vivo. To be noted: SD-Rat, orally 1,000, 2,000 mg/kg, 14 days. The procedure: (§4) In this test, the acute toxicity of the compound of the present invention when the compound is […] was determined on rat (SD-Rat, 100˜110 g). One group consists of 5 males and 5 females. The first group is the control group and 0.5% CMC was intravenously administered to this group. The compounds of Examples 5 and 8 were orally administered in a dosage of 1,000, 2,000 mg/kg, respectively, to each test group. […] On the last day of the test, 14th day from the start, the rat were subjected to an autopsy in order to examine changes of the internal organs. […] Further, since no […] died during the test period, it was confirmed that the compounds of Examples 5 and 8 have LD50 of 2,000 mg/kg or more. This means that the compounds of the present invention including those of Examples 5 and 8 are safe in the aspect of acute toxicity.

The nature of data set [3]: Acute toxicity test in rat (oral administration). The format is in vivo. The following applies: both sexes, SD, rat, in vivo, po. The procedure:
as §4

Another data set relates to A-172. The experiment in a line: Growth inhibition of encephalophyma cell A-172 (MTT). The format is cell-based. The following applies: Homo sapiens; A-172, Experiment 3. The procedure: as §1, §2
In the next data set the test system is Panc-1. The experiment in a line: Growth inhibition of pancreatic cancer cell Panc-1 (MTT). To be noted: Homo sapiens; Panc-1, Experiment 3. The format is cell-based. The procedure:
as §1, §2

A further data set relates to A549. The data set is described as follows: Growth inhibition of lung cancer cell A549 (MTT). It counts as cell-based. To be noted: Homo sapiens; A549, Experiment 3; read-out: IC50. The procedure: as §1, §2, §2
The subject of the next data set is SNU-C1. The data set is described as follows: Growth inhibition of colon cancer cell SNU-C1 (MTT). The following applies: Homo sapiens; SNU-C1, Experiment 3. The format is cell-based. The procedure: as §1, §2
The next data set deals with SNU-1. The experiment in a line: Growth inhibition of gastric cancer cell SNU-1 (MTT). The format is cell-based. To be noted: Homo sapiens, SNU1, SNU-1, Experiment 3; read-out: IC50. The procedure:
as §1, §2, §2

Another data set relates to CT-26 cancer cell. The experiment in a line: Growth inhibition of CT-26 cancer cell (MTT). It counts as cell-based. The procedure: as §1
In the present experiment, the inhibitory activity of the compounds of formula (1) was determined against the growth of CT-26 cancer cell. The test was performed according to the same procedure as Experiment 1.

The mark [4] stands for this setting: male, Sprague-Dawley, rat, plasma, po, 100 mg/kg.

Regarding `Cc1cn(-c2cc(NC(=O)c3ccc(C)c(Nc4nccc(-c5nccs5)n4)c3)cc(C(F)(F)F)c2)cn1` [Example 5, 4-methyl-N-[3-(4-methylimidazol-1-yl)-5-trifluoromethyl-phenyl]-3-(4-thiazol-2-yl-pyrimidin-2-ylamino)-benzamide], the IC50 with RPMI-6666 is less than 0.01 µg/mL; in the data set with HT-1197, 0.063 µg/mL (≈ 0.118 µM); in the data set with K562 cancer cell (Homo sapiens, K562, 48 h, K562, MTT, 2 days), no more than 0.01 µg/mL; in the data set on A-172, less than 0.01 µg/mL; with Panc-1, 7.1 µg/mL (≈ 13.3 µM); in the data set on A549, 0.082 µg/mL (≈ 0.153 µM). Also, the IC50 in the data set on SNU-C1 is less than 0.01 µg/mL; with SNU-1 it was less than 0.01 µg/mL; in the data set with CT-26 cancer cell (Mus musculus, CT26, 48 h, CT-26, MTT, 2 days, read-out: IC50), 0.06 µg/mL (≈ 0.112 µM). Also, the AUC in data set [1] (setting [4]) was 114 µg·h/mL. Also, in [1] (setting [4]), the Cmax came to 8270 ng/mL. Also, the time to peak (Tmax) in [1] (setting [4]) turned out to be 11.2 h. In addition, in data set [1] (white rats, 100 mg/kg per oral), the “AUC as much as that of Imatinib mesylate” value was roughly 5 times. For the same molecule, the “Cmax as much as that of Imatinib mesylate” value in data set [1] (white rats, 100 mg/kg per oral) is on record as “about 4 times”. Also, the figures for the “improved activity compared with Imatinib mesylate” value in the data set with K562 cancer cell (K562) and in the data set with CT-26 cancer cell (CT-26) were 50 times and 300 times, respectively. Besides, the “clinical conditions and autopsy” value with mice (ICR) and in the data set on rat (SD-Rat) was “neither abnormal response nor specific autopsy result was observed” in each case. For the same molecule, the median lethal dose (LD50) at 14 days in [2] and in data set [3] was no less than 2000 mg/kg in each case.
